From patent US12479847B2 (DANA-FARBER CANCER INSTITUTE, INC., priority 2019, dated 2025)
pIC50: −log10 of the molar value.

biological target: T1, wild-type LRKK2 (Mus musculus, UniProt Q5S006); test: LRRK2 immunoblot, phosphorylation of Ser935, NIH-3T3 cell lysates; assay type: cell-based; details: FIG. 1
T1 construct: endogenous in cells; host or cells: NIH-3T3
Method: Cell lysates were extracted from the NIH-3T3 cell pellet using lysis buffer (40 mM Tris-HCl pH 8.0, 120 mM NaCl, 0.10% Nonidet™-P40) supplemented with protease inhibitors. Proteins in whole-cell lysates were separated by SDS-PAGE and transferred to an Amersham™ nitrocellulose membrane (Amersham, UK). Nitrocellulose membranes were blocked with 5% skim milk in phosphate-buffered saline containing Tween 20 and incubated with primary antibodies overnight at 4° C. The blots were then incubated with the appropriate horseradish peroxidase (HRP)-conjugated secondary antibodies and proteins were visualized by enhanced chemiluminescence, according to the manufacturer's protocol (Amersham™ Western blotting). Secondary antibodies, anti-rabbit IgG-HRP were purchased from Cell Signaling technology. Immunoblot film were scanned on a LAS500 scanner, and images were managed with Adobe Photoshop

T1 sequence (Q5S006 whole entry): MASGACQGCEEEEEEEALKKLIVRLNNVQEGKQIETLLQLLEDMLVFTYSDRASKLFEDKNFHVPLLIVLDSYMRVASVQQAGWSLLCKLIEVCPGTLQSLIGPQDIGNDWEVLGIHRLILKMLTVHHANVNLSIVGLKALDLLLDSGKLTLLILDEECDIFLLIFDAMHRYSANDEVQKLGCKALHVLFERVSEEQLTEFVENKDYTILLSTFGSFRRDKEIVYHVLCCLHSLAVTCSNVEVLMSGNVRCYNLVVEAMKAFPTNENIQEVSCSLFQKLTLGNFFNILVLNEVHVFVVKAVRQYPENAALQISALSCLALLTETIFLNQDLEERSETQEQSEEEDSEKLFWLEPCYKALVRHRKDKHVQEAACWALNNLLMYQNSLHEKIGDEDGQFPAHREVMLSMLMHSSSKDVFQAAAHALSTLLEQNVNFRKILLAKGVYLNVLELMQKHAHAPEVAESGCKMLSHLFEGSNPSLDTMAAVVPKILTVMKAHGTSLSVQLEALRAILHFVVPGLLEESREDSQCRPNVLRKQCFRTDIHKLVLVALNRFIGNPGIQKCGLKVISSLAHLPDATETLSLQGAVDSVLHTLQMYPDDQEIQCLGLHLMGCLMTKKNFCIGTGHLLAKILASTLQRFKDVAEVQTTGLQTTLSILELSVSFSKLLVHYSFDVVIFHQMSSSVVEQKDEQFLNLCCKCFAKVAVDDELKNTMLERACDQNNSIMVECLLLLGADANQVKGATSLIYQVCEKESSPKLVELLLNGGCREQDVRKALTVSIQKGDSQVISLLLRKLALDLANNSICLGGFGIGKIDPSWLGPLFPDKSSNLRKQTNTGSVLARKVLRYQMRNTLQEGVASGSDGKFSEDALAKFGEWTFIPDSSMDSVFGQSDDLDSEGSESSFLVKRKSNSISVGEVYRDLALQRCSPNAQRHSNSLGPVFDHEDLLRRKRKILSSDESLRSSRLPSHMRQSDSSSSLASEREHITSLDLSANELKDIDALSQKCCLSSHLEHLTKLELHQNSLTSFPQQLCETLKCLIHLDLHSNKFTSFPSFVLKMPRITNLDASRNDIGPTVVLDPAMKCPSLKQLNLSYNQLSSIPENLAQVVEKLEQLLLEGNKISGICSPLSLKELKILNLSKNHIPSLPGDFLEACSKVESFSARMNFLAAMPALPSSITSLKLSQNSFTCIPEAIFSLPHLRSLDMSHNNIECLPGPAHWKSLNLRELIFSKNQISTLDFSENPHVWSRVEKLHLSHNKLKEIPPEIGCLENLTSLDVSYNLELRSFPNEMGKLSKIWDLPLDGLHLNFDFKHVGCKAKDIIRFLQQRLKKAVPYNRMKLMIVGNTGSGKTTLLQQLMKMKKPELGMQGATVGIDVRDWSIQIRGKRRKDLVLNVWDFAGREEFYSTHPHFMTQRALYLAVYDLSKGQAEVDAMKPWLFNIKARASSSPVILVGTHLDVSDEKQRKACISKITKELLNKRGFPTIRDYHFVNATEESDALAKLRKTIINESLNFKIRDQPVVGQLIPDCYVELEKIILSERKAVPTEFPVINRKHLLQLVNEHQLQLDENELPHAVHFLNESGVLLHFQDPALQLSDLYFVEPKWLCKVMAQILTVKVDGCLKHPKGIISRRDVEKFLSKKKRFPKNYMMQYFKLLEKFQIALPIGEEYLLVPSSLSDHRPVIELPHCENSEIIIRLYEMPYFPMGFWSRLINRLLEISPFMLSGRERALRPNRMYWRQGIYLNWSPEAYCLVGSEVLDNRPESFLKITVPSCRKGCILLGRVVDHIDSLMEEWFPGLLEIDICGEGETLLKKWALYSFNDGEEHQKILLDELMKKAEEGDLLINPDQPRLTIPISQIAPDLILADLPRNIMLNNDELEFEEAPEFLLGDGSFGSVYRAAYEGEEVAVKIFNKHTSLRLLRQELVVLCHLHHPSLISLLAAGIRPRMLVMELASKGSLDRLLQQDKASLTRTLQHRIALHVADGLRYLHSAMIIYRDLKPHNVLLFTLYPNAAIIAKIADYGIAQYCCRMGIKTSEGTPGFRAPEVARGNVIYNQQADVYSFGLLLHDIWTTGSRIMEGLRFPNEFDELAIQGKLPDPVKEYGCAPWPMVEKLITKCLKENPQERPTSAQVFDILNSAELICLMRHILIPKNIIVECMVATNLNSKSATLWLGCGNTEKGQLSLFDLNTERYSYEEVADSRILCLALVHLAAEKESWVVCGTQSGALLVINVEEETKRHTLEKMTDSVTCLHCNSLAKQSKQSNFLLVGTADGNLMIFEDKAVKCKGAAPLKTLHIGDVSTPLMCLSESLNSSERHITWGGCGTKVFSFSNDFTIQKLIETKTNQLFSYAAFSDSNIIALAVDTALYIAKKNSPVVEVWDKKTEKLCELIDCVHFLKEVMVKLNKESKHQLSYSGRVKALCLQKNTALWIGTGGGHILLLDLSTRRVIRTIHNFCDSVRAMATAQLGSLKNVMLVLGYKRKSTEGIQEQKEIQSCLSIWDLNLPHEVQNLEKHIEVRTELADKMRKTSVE

With `COc1cc(C(=O)N2CCC(N3CCN(C)CC3)CC2)ccc1Nc1ncc2c(n1)N(C)c1ccccc1C(=O)N2C` [LRRK2-IN-1, reference compound] the “inhibition of the phosphorylation of Ser935 in wild-type LRKK2” value (“inhibition” for short) was “inhibition of the phosphorylation of Ser935”.
With `CCCNc1nc(Nc2ccc(C(=O)N3CCC(N4CCOCC4)CC3)c3c2OCCO3)nc2[nH]cc(Cl)c12` [Compound 2, (8-((5-chloro-4-(propylamino)-7H-pyrrolo[2,3-d]pyrimidin-2-yl)amino)-2,3-dihydrobenzo[b][1,4]dioxin-5-yl)(4-morpholinopiperidin-1-yl)methanone] the “inhibition” value was “inhibited the phosphorylation of Ser935 in wild-type LRKK2 with potency similar to known LRRK2 inhibitor LRRK2-IN-1”.
With `CCCNc1nc(Nc2ccc(S(=O)(=O)N3CCC(N4CCOCC4)CC3)cc2OC)nc2[nH]cc(Cl)c12` [Compound 19, 5-chloro-N2-(2-methoxy-4-((4-morpholinopiperidin-1-yl)sulfonyl)phenyl)-N4-propyl-7H-pyrrolo[2,3-d]pyrimidine-2,4-diamine] the “inhibition” value was “inhibited the phosphorylation of Ser935 in wild-type LRKK2 with potency similar to known LRRK2 inhibitor LRRK2-IN-1”.

biological target: human LRRK2 kinase (Homo sapiens, UniProt Q5S007); test: not given; details: LRRK2, ADP-Glo, ATP 10 μM, 60 minutes at 25° C.
Sequence (Q5S007 whole entry): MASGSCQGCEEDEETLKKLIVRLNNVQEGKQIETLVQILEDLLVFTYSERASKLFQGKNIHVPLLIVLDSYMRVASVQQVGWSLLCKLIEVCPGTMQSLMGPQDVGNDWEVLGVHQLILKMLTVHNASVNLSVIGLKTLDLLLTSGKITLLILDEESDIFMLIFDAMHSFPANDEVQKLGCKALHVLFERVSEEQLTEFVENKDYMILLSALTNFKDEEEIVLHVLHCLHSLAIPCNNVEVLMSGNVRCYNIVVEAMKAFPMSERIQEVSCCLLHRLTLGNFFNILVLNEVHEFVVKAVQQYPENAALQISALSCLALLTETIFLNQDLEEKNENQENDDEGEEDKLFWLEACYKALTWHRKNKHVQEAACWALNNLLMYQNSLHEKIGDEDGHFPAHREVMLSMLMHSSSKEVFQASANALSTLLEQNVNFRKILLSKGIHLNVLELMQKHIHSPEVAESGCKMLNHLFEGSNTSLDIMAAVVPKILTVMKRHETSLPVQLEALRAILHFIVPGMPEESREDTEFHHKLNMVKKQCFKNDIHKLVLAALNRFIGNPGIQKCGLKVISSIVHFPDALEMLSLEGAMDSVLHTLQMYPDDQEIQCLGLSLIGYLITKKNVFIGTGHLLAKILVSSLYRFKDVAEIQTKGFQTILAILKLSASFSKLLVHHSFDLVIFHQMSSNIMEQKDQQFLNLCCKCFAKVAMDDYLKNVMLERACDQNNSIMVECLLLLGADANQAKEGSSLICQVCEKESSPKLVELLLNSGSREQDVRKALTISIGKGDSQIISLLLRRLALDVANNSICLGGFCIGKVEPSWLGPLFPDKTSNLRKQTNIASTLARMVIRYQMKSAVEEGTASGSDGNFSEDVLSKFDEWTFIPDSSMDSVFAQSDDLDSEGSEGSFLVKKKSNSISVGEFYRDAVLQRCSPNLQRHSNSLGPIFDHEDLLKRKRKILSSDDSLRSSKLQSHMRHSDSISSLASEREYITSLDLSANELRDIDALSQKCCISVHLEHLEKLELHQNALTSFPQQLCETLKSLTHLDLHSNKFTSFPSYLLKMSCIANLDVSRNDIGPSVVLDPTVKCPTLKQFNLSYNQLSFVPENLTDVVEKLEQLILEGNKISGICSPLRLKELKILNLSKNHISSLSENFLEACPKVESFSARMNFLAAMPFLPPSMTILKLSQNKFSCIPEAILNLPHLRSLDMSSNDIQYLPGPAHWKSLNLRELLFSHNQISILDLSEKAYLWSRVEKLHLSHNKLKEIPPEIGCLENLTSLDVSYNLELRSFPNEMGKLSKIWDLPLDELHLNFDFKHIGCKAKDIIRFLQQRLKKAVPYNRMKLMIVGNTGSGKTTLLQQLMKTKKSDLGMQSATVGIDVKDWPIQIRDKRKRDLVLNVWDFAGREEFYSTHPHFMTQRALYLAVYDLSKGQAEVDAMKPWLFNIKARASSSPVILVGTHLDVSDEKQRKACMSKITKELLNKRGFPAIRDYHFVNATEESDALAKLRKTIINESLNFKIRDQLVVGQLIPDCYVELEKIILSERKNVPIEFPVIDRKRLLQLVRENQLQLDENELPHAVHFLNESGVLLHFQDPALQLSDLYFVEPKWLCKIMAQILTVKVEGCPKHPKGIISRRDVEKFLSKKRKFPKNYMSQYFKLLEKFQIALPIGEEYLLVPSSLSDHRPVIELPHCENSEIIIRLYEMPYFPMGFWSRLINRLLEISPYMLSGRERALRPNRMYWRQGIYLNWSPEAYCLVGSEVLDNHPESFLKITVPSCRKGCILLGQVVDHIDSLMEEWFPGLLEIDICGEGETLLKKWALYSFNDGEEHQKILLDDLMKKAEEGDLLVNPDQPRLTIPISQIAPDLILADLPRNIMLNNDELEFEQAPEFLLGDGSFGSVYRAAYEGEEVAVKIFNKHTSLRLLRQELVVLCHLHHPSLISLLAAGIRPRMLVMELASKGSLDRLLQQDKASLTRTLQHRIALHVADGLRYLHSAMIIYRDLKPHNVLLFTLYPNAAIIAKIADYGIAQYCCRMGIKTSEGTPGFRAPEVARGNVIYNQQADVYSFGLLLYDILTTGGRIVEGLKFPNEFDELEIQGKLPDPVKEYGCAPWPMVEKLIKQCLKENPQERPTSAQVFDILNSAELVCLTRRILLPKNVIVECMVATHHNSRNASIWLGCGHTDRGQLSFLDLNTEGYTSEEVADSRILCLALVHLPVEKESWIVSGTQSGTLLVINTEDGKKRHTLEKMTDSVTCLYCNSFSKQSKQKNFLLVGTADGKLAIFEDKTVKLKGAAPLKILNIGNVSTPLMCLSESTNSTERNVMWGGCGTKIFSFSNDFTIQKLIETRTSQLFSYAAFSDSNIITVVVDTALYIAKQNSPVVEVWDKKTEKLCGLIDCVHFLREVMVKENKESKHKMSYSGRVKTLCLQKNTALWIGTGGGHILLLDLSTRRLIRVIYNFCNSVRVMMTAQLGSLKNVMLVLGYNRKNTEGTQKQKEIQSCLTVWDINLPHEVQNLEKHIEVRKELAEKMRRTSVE

First: CCCNc1nc(Nc2ccc(C(=O)N3CCC(N4CCOCC4)CC3)c3c2OCCO3)nc2[nH]cc(Cl)c12 [Compound 2, (8-((5-chloro-4-(propylamino)-7H-pyrrolo[2,3-d]pyrimidin-2-yl)amino)-2,3-dihydrobenzo[b][1,4]dioxin-5-yl)(4-morpholinopiperidin-1-yl)methanone]
Second: O=C(c1ccc(Nc2nc(NC3CCC3)c3c(Cl)c[nH]c3n2)c2c1CCO2)N1CCC(N2CCOCC2)CC1 [Compound 103, (7-((5-chloro-4-(cyclobutylamino)-7H-pyrrolo[2,3-d]pyrimidin-2-yl)amino)-2,3-dihydrobenzofuran-4-yl)(4-morpholinopiperidin-1-yl)methanone]
The pIC50 of the first is higher: > 8.00 for the first, 7.00 to 8.00 for the second. The first is the more potent here.

Compared with `CCCNc1nc(Nc2ccc(S(=O)(=O)N3CCC(N4CCOCC4)CC3)cc2OC)nc2[nH]cc(Cl)c12` [Compound 19, 5-chloro-N2-(2-methoxy-4-((4-morpholinopiperidin-1-yl)sulfonyl)phenyl)-N4-propyl-7H-pyrrolo[2,3-d]pyrimidine-2,4-diamine], `COCCNc1nc(Nc2ccc(S(=O)(=O)N3CCC(N4CCOCC4)CC3)cc2OC)nc2[nH]cc(Cl)c12` [Compound 22, 5-chloro-N2-(2-methoxy-4-((4-morpholinopiperidin-1-yl)sulfonyl)phenyl)-N4-(2-methoxyethyl)-7H-pyrrolo[2,3-d]pyrimidine-2,4-diamine] is higher in pIC50: 6.00 to 7.00 for the first, > 8.00 for the second.

First: COc1cc(P2(=O)CCN(C3CC3)CC2)ccc1Nc1nc(NCC(C)C)c2c(Cl)c[nH]c2n1 [Compound 96, 4-(4-((5-chloro-4-(isobutylamino)-7H-pyrrolo[2,3-d]pyrimidin-2-yl)amino)-3-methoxyphenyl)-1-cyclopropyl-1,4-azaphosphinane 4-oxide]
Second: COc1cc(P2(=O)CCN(C3CC3)CC2)ccc1Nc1nc(NC2CC2)c2c(Cl)c[nH]c2n1 [Compound 90, 4-(4-((5-chloro-4-(cyclopropylamino)-7H-pyrrolo[2,3-d]pyrimidin-2-yl)amino)-3-methoxyphenyl)-1-cyclopropyl-1,4-azaphosphinane 4-oxide]
The pIC50 of the first is lower: 6.00 to 7.00 for the first, 7.00 to 8.00 for the second.

`COc1cc(P2(=O)CCN(C(C)=O)CC2)ccc1Nc1nc(NC2CC2)c2c(Cl)c[nH]c2n1` [Compound 91, 1-(4-(4-((5-chloro-4-(cyclopropylamino)-7H-pyrrolo[2,3-d]pyrimidin-2-yl)amino)-3-methoxyphenyl)-4-oxido-1,4-azaphosphinan-1-yl)ethan-1-one] and `CNc1nc(Nc2ccc(P3(=O)CCN(C(C)=O)CC3)cc2OC)nc2[nH]cc(Cl)c12` [Compound 82, 1-(4-(4-((5-chloro-4-(methylamino)-7H-pyrrolo[2,3-d]pyrimidin-2-yl)amino)-3-methoxyphenyl)-4-oxido-1,4-azaphosphinan-1-yl)ethan-1-one] cannot be ordered by pIC50: > 8.00 for the first, > 8.00 for the second.

First: CCNc1nc(Nc2ccc(S(C)(=O)=O)cc2OC)nc2[nH]cc(Cl)c12 [Compound 16, 5-chloro-N4-ethyl-N2-(2-methoxy-4-(methylsulfonyl)phenyl)-7H-pyrrolo[2,3-d]pyrimidine-2,4-diamine]
Second: COc1cc(S(=O)(=O)N2CCC(N3CCOCC3)CC2)ccc1Nc1nc(NC2CC2)c2c(Cl)c[nH]c2n1 [Compound 25, 5-chloro-N4-cyclopropyl-N2-(2-methoxy-4-((4-morpholinopiperidin-1-yl)sulfonyl)phenyl)-7H-pyrrolo[2,3-d]pyrimidine-2,4-diamine]
The pIC50 of the first is lower: 7.00 to 8.00 for the first, > 8.00 for the second.

With `COc1cc(S(=O)(=O)N2CCC(N3CCOCC3)CC2)ccc1Nc1nc(NC2CCC2)c2c(Cl)c[nH]c2n1` [Compound 28, 5-chloro-N4-cyclobutyl-N2-(2-methoxy-4-((4-morpholinopiperidin-1-yl)sulfonyl)phenyl)-7H-pyrrolo[2,3-d]pyrimidine-2,4-diamine] the pIC50 was 6.00 to 7.00.

same assay, conditions: read-out: LRRK2; ADP-Glo, ATP 10 μM, 60 minutes at 25° C.

With `CCC(C)Nc1nc(Nc2ccc(S(=O)(=O)N3CCOCC3)cc2OC)nc2[nH]cc(Cl)c12` (stereo in doubt) [Compound 51, (S)—N4-(sec-butyl)-5-chloro-N2-(2-methoxy-4-(morpholinosulfonyl)phenyl)-7H-pyrrolo[2,3-d]pyrimidine-2,4-diamine] the pIC50 was 6.00 to 7.00.
